Measurements published in patent publication US9937165B2, “Pharmacological chaperones for treating obesity” (Amicus Therapeutics, Inc., priority 2005, dated 2018).
Several values for one entry are separate records, joined by “and”; a condition that tells them apart may be missing. Identical values can stand only once. Square brackets hold non-standard residues; d marks the D form. Nle = CCCC[C@H](N)C(=O)O

Key:
[1] = target: MC4R as compared to the MC3R (Homo sapiens, UniProt P32245); settings: cited from earlier work
Chain of MC4R as compared to the MC3R (P32245 whole entry): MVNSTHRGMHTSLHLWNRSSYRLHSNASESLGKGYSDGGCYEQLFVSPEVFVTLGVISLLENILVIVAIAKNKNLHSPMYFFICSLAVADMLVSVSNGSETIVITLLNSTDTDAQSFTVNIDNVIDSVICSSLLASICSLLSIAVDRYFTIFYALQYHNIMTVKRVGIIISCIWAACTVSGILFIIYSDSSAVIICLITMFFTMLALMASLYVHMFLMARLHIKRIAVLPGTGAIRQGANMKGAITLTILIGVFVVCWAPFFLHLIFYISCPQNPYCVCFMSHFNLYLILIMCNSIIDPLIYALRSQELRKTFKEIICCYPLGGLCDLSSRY

[2] = target: MC4R as compared to the MC5R (Homo sapiens, UniProt P32245); settings: cited from earlier work
Chain of MC4R as compared to the MC5R (P32245 whole entry): as above

[3] = Phase I study of DGJ, pharmacokinetics in plasma and urine; format: in vivo, human
Description: (§1) Subjects were housed in the treatment facility from 14 hours prior to dosing until 24 hours after dosing. Meals were controlled by schedule and subjects remained abulatory for 4 hours post drug administration.
Blood samples (10 mL each) were collected in blood collection tubes containing EDTA before dosing and at the following times thereafter: 0.25, 0.5, 0.75, 1, 1.5, 2, 3, 4, 5, 6, 7, 8, 9, 10, 11 and 12 hours. Blood samples were cooled in an ice bath and centrifuged under refrigeration as soon as possible. Plasma samples were divided into two aliquots and stored at […]. pending assay. At the end of the study, all samples were transferred to MDS Pharma Services Analytical Laboratories (Lincoln) for analysis.
Pharmacokinetic parameters were summarised by treatment group using descriptive statistics (arithmetic means, standard deviations, coefficients of variation, sample size, minimum, maximum and median).

[4] = Phase I study of DGJ, safety and tolerability; format: in vivo, human
Description: as §1
Safety was determined by evaluating vital signs, laboratory parameters (serum chemistry, hematology, and urinalysis), ECGs, physical examination and by recording adverse events during the Treatment Period.
Safety data including laboratory evaluations, physical exams, adverse events, ECG monitoring and vital signs assessments were summarized by treatment group and point of time of collection. Descriptive statistics (arithmetic mean, standard deviation, median, minimum and maximum) were calculated for quantitative safety data as well as for the difference to baseline. Frequency counts were compiled for classification of qualitative safety data.
Adverse events were coded using the MedDRA version 7.0 dictionary and summarized by treatment for the number of subjects reporting the adverse event and the number of adverse events reported. A by-subject adverse event data listing including verbatim term, coded term, treatment group, severity, and relationship to treatment was provided. Concomitant medications and medical history were listed by treatment.

[5] = target: T1, α-Galactosidase A (α-Gal A) (Homo sapiens, UniProt P06280); parameters: host or cells: normal lymphoblasts (endogenous enzyme); settings: normal lymphoblasts cultured in vitro with DGJ; cited from earlier work
T1 sequence (P06280 32-429): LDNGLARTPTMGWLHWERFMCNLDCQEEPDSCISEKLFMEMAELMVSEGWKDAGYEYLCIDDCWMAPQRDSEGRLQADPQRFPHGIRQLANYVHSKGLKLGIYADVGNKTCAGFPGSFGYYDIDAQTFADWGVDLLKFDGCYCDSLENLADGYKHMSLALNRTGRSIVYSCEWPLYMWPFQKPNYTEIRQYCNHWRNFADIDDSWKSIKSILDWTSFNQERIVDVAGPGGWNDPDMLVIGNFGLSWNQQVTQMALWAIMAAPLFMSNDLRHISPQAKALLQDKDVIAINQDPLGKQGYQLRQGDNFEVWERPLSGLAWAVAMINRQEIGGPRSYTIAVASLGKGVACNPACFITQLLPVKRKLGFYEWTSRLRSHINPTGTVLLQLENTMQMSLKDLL

[6] = target: T1, α-Galactosidase A (α-Gal A); experiment: Phase I study of DGJ, WBC α-Gal A enzymatic activity; format: in vivo; parameters: α-Gal A activity was calculated in white blood cells (WBC) before dosing began; endogenous in cells
Description: as §1
Blood samples (10 mL each) were collected in blood collection tubes containing EDTA and WBC extracted before dosing and at the following times thereafter: 100 hours, 150 hours, and 336 hours. Samples were treated as described above, and WBC α-Gal A enzymatic activity levels were determined.

[7] = in vivo; cited from earlier work
hMC4R mutant S58C = target: T2, hMC4R mutant S58C (Homo sapiens, UniProt P32245, S58C); experiment: Pharmacological chaperone assay, cell surface expression by FACS, mutant S58C; format: cell-based; settings: 12 h
T2 construct: expressed in transfected cells; host or cells: HEK 293 cells, transient transfection
T2 sequence (P32245 whole entry S58C): as the sequence (P32245 whole entry) above, with S58C counted along it
Description: (§2) HEK 293 cells were transiently transfected with wild-type (WT) or the following hMC4R mutants double tagged with 3HA and Venus (Enhanced Yellow Green Fluorescent Protein; EYFP): S58C; N62S; R165W; R165Q, and P299H.
(§3) FACS analysis was performed after fluorescently labeling cells with primary anti-HA.11 antibody (mouse; 1:1000 dilution) and the secondary antibody coupled to Alexa 647 (goat anti-mouse; 1:1000 dilution) dilution. Live cells (propidium iodide negative) were sorted into the following two relevant populations: • P4: Total YFP positive cells (representative of total MC4R expression) • P5: Percent of cells positive for both YFP and Alexa 647 (Alexa and YFP positive cells)/(YFP positive cells+Alexa and YFP positive cells) (representative of cell surface expression)
(§4) Briefly, cells harboring each of the above-referenced MC4R mutants (transfected as described in Example 3) were cultured with each of the antagonist compounds at concentrations of 1.0 μM and 10 μM for 12 h and evaluated for cell surface expression of MC4R using fluorescent activated cell sorting analysis as described above. Cell surface expression levels are compared between treatment and basal conditions. Percent Gain is determined according to the following: [Gain=[(% of surface expression (with treatment)−% of surface expression (w/o treatment))/% of surface expression (w/o treatment)]*100.

hMC4R mutant R165Q = target: T3, hMC4R mutant R165Q (Homo sapiens, UniProt P32245, R165Q); experiment: Pharmacological chaperone assay, cell surface expression by FACS, mutant R165Q; format: cell-based; settings: 12 h
T3 construct: expressed in transfected cells; host or cells: HEK 293 cells, transient transfection
T3 sequence (P32245 whole entry R165Q): as the sequence (P32245 whole entry) above, with R165Q counted along it
Description: as §2, §3, §4

hMC4R mutant P299H = target: T4, hMC4R mutant P299H (Homo sapiens, UniProt P32245, P299H); experiment: Pharmacological chaperone assay, cell surface expression by FACS, mutant P299H; format: cell-based; settings: 12 h
T4 construct: expressed in transfected cells; host or cells: HEK 293 cells, transient transfection
T4 sequence (P32245 whole entry P299H): as the sequence (P32245 whole entry) above, with P299H counted along it
Description: as §2, §3, §4

hMC4R mutant R165W = target: T5, hMC4R mutant R165W (Homo sapiens, UniProt P32245, R165W); experiment: Pharmacological chaperone assay, cell surface expression by FACS, mutant R165W; format: cell-based; settings: 12 h
T5 construct: expressed in transfected cells; host or cells: HEK 293 cells, transient transfection
T5 sequence (P32245 whole entry R165W): as the sequence (P32245 whole entry) above, with R165W counted along it
Description: as §2, §3, §4

hMC4R mutant N62S = target: T6, hMC4R mutant N62S (Homo sapiens, UniProt P32245, N62S); experiment: Pharmacological chaperone assay, cell surface expression by FACS, mutant N62S; format: cell-based; settings: 12 h
T6 construct: expressed in transfected cells; host or cells: HEK 293 cells, transient transfection
T6 sequence (P32245 whole entry N62S): as the sequence (P32245 whole entry) above, with N62S counted along it
Description: as §2, §3, §4

MC4R over MC3R = MC4R over MC3R (Homo sapiens, UniProt P32245); settings: cited from earlier work
Chain of MC4R over MC3R (P32245 whole entry): as the sequence (P32245 whole entry) above

MC4R = MC4R (Homo sapiens, UniProt P32245); settings: MC4R antagonist; cited from earlier work
Chain of MC4R (P32245 whole entry): as above

## Ac-Nle-Gly-Lys-D-Phe-Arg-Trp-Gly-NH(2) (Ac-[Nle]GK[dF]RWG-NH2; SMILES CCCC[C@H](NC(C)=O)C(=O)NCC(=O)N[C@@H](CCCCN)C(=O)N[C@H](Cc1ccccc1)C(=O)N[C@@H](CCCNC(=N)N)C(=O)N[C@@H](Cc1c[nH]c2ccccc12)C(=O)NCC(N)=O)
[1]
  selectivity for the MC4R as compared to the MC3R: 90 fold
[2]
  selectivity for the MC4R as compared to the MC5R: 110 fold

## OC[C@H]1NC[C@H](O)[C@@H](O)[C@H]1O [DGJ, 1-deoxygalactonojirimycin]
[3]; 50 mg b.i.d. oral, Day 1
  tmax: 2.9 ± 0.4 h
  t½: 2.5 h
[3]; 50 mg b.i.d. oral, Day 1, 12-hour post dose period
  12 h cumulative renal excretion: 16% and 16 ± 6%
[3]; 50 mg b.i.d. oral, Day 1, plasma
  Cmax: 2.3 ± 0.3 µM
[3]; 50 mg b.i.d. oral, Day 7
  Cmin: 0.4 ± 0.03 µM
  tmax: 2.5 ± 0.4 h
[3]; 50 mg b.i.d. oral, Day 7, 12-hour post dose period
  12 h cumulative renal excretion: 48% and 48 ± 7%
[3]; 50 mg b.i.d. oral, Day 7, plasma
  Cmax: 39 ± 0.5 µM
[3]; 150 mg b.i.d. oral, Day 1
  tmax: 3.1 ± 0.4 h
  t½: 2.4 h
[3]; 150 mg b.i.d. oral, Day 1, 12-hour post dose period
  12 h cumulative renal excretion: 42% and 42 ± 7%
[3]; 150 mg b.i.d. oral, Day 1, plasma
  Cmax: 11.3 ± 1.5 µM
[3]; 150 mg b.i.d. oral, Day 7
  Cmin: 1.2 ± 0.1 µM
  tmax: 2.9 ± 0.4 h
[3]; 150 mg b.i.d. oral, Day 7, 12-hour post dose period
  12 h cumulative renal excretion: 60% and 60 ± 5%
[3]; 150 mg b.i.d. oral, Day 7, plasma
  Cmax: 10.8 ± 1.4 µM
[3]; all dose levels
  time of peak concentrations, on average: approximately 3 hours
[3]; doses increased from 50 mg to 150 mg
  dose dependence of Cmax: increased in a dose-proportional manner
[4]; 50 mg b.i.d. and 150 mg b.i.d., healthy male subjects
  safety and tolerability: safe and well tolerated
[4]; 50 mg b.i.d. or 150 mg b.i.d., healthy male subjects
  adverse events (AEs): no subject presented with AEs
[4]; throughout the study
  vital sign, ECG, or physical examination parameter: No clinically relevant abnormality
[5]
  increase of α-Gal A activity: 30%
[6]; 50 mg b.i.d. or 150 mg b.i.d.
  inhibition of WBC α-Gal A enzymatic activity: did not inhibit
[6]; 50 mg b.i.d., 150 hours
  WBC α-Gal A enzymatic activity, % pre-dose levels: 130%
[6]; 50 mg b.i.d., 336 hours
  WBC α-Gal A enzymatic activity, % pre-dose levels: 145%
[6]; 150 mg b.i.d., 100 hours
  WBC α-Gal A enzymatic activity, % pre-dose levels: 150%
[6]; 150 mg b.i.d., 150 hours
  WBC α-Gal A enzymatic activity, % pre-dose levels: 185%
[6]; 150 mg b.i.d., 336 hours
  WBC α-Gal A enzymatic activity, % pre-dose levels: 185%

## O=C(N[C@H](Cc1ccc(Cl)cc1)C(=O)N1CCC(Cn2cncn2)(C2CCCCC2)CC1)[C@H]1Cc2ccccc2CN1 [Compound 1, THIQ]
[7]
  PK %F: %F 14
  PK Cl: Cl 84 mLmin/kg
  PK Vd: Vd 3.6 L/kg
  PK t½: t½ 0.6 h

## Br.COc1ccc([N+](=O)[O-])cc1CSc1ccccc1C1=NCCCN1 [Compound 4]
hMC4R mutant S58C; 1 μM
  % Gain in cell surface expression: 60%
hMC4R mutant S58C; 10 μM
  % Gain in cell surface expression: 130%
hMC4R mutant R165Q; 1 μM
  % Gain in cell surface expression: 91.7%
hMC4R mutant R165Q; 10 μM
  % Gain in cell surface expression: 508%
hMC4R mutant P299H; 1 μM
  % Gain in cell surface expression: 11.11%
hMC4R mutant P299H; 1 μM, listed as compound shown in FIG. 6
  % Gain in cell surface expression: no effect
hMC4R mutant P299H; 10 μM
  % Gain in cell surface expression: 38.9%
hMC4R mutant P299H; 10 μM, listed as compound shown in FIG. 6
  % Gain in cell surface expression: no effect
hMC4R mutant R165W; 1 μM
  % Gain in cell surface expression: 150%
hMC4R mutant R165W; 10 μM
  % Gain in cell surface expression: 675%
hMC4R mutant N62S; 1 μM
  % Gain in cell surface expression: 6.25%
hMC4R mutant N62S; 10 μM
  % Gain in cell surface expression: 212.5%

## Ac-Nle-c[Asp-Cpe-DNal(2′)-Arg-Trp-Lys-NH(2) [SHU9119 analogue, cyclic MC4R antagonist of Grieco et al., J Med Chem 2002]
MC4R over MC3R
  selectivity over MC3R: 200 fold
MC4R
  IC50: 0.51 nM
